Measured values from US9677109B2, “Rapid determination of microbial growth and antimicrobial susceptibility” (priority 2013, dated 2017).

How the values were obtained:
Assay type in all cases: cell-based
[1] = system: Staphylococcus aureus (SA); experiment: MADM clone growth in antibiotic agar, simulated blood specimens; conditions: SA in 6 μg/mL FOX, FIG. 10B, three hours
Description: The MADM system used a custom microscope and pipetting robot, plus an evaluation system, as described herein. 32-channel disposable cassettes (FIG. 4A) enabled live microorganism immobilization for microscopy and fluid exchanges for different test agents. The microscope scanned 40 image fields in each flowcell channel, each channel having organisms extracted from about 3.5 μL of prepared inoculum.
Simulated blood specimens consisted of isolates spiked into 10 mL each of 29 aliquots of two short-fill CPD blood bank bags to make approximately 5 CFU/mL of bacterial target species, confirmed by quantitative culture. Spiked isolates included 14 Staphylococcus aureus (SA), 3 Pseudomonas aeruginosa (PA), or 12 non-target Gram-negative bacilli species. Dilution of each sample with 30 mL of modified TSB culture medium promoted growth. 20 additional control aliquots contained no spikes. 4-hour incubation at 35° C., followed with brief spin cleanup, ended with pellet resuspension into an electrokinetic buffer to make 1 mL samples for MADM system analysis. 20 μL sample aliquots were then pipetted into 14 cassette flowcells. A 5-minute low-voltage electrokinetic capture was performed to concentrate microorganisms on the lower surface of each flowcell where a capture coating immobilized the bacterial cells. […]

Enteric = experiment: MADM (BACcel) growth analysis sensitivity, surveillance mini-BAL; conditions: specimen 005-D7, BACcel ID Enteric, 1.26 × 10^5 CFU/ml
Description: (§1) Adult MICU patients with identified surrogate were included within 72 hours of intubation and if anticipated to require MV for >48 h. Moribund state or pregnancy were exclusions. Surveillance mini-BAL (Combicath, Plastimed) was performed on Day 1, 3, 5, 7 and 10 of MV. Samples were split and processed for both a) routine respiratory quantitative microbiological culture and sensitivity assays (>48 h result availability) and b) rapid (<8 h) flowcell/surface-capture assays using the MADM system. Viable microorganisms were identified using growth analysis enhanced by a focused VAP antibody panel (S. aureus, P. aeruginosa, A. baumannii). Untypable organisms were also reported. Sensitivity was assessed using growth analysis. Attending physicians were blinded to MADM system results.
(§2) BAL sample were prepared, removing debris and separating microorganisms from other sample material. Sample microorganisms were introduced into a multichannel fluidic cassette as described elsewhere herein. Bacteria were concentrated and retained on the lower surface of all flowcells using low-voltage electrical field (5 min). Antibody labeling of bacteria in flowcells was used to aid identification.
(§3) The automated digital microscopy system was used to perform darkfield imaging of 10 fields of view every 10 minutes for 180 minutes in each flowcell channel. Initial epifluorescence imaging was also performed for antibody detection. […] Identification consisted of probability scores based on microorganism morphology and growth rates. Antibody labeling identification data was also incorporated. Observed microorganisms were then classified as STAU, PSAE, or non-target. Antibiotic responses were used to aid identification when appropriate. Quantitation was performed by counting identified microorganism and computing original specimen CFU/mL.

S. maltophilia (Steno) = experiment: as above
Description: as §1, §2, §3

S. aureus (STAU) = experiment: as above; conditions: specimen 008-D7, BACcel ID STAU, 1.11 × 10^6 CFU/ml
Description: as §1, §2, §3

[2] = system: Staphylococcus aureus (STAU); experiment: MADM resistance phenotype test, respiratory specimens
Description: (ABCC). Concurrent quantitative culture (qCx) was performed on specimens.
20 μL samples of prepared specimen were pipetted into independent flowcell channels and a low-voltage electrical field was applied for 5 minutes. The electrical field concentrated bacteria onto a functional surface coating that immobilized the bacteria on the lower flowcell surface. Each flowcell channel received only one type of test reagent solution that contained a selective agent if required (only for channels used to test AB, sulbactam 32 μg/mL).
The instrument acquired images at 10-minutes intervals for 180 minutes, using 10 fields of view in each flowcell channel through a 20× objective. Imaging used darkfield illumination. Identification variables included response to selective agents (AB with sulbactam), cell morphology, growth morphology, and growth rate.
Identification algorithms applied to each individual immobilized bacterial cell. The system measured the amount of change in mass over time to compute growth rates. Identification consisted of computing and combining probability scores for morphology, response to selective media, and growth rates to produce a receiver operating characteristic curve (ROC) to derive classification criteria.

In the case of `CO[C@@]1(NC(=O)Cc2cccs2)C(=O)N2C(C(=O)O)=C(COC(N)=O)CS[C@@H]21` [FOX, cefoxitin], the Clone growth [1] was “growth indicating MRSA phenotype”, the “Phenotype, sensitivity” value (Enteric) was “all growth” and the “Phenotype, sensitivity” value (S. maltophilia (Steno); specimen 006-D1, BACcel ID Steno, 7.68 × 10^5 CFU/ml) was “growth, TZP-”. For the same compound, the “Phenotype, sensitivity” value (S. maltophilia (Steno); specimen 006-D3, BACcel ID Steno, 1.60 × 10^4 CFU/ml) was “growth, TZP-”, the “Phenotype, sensitivity” value (S. aureus (STAU)) was “FOX-R” and the MADM resistance phenotype ([2]; specimen DH 425, Mini-BAL) was “R”. The MADM resistance phenotype ([2]; specimen DH 427, Mini-BAL) was “S”, the MADM resistance phenotype ([2]; specimen DH 439, Mini-BAL) was “R” and the MADM resistance phenotype ([2]; specimen DH 440, BAL) was “S”. The MADM resistance phenotype ([2]; specimen DH 457, BAL) was “S”, the MADM resistance phenotype ([2]; specimen DH 485, BAL) was “S” and the MADM resistance phenotype ([2]; specimen DH 509, BAL) was “S”. For the same compound, the MADM resistance phenotype ([2]; specimen DH 514, Mini-BAL) was “S”, the MADM resistance phenotype ([2]; specimen DH 543, BAL) was “S” and the MADM resistance phenotype ([2]; specimen DH 550, BAL) was “S”. The MADM resistance phenotype ([2]; specimen DH 556, Mini-BAL) was “S” and the MADM resistance phenotype ([2]; specimen T12, ETA) was “R”.
